The results in this text go back to BindingDB's records for doi:10.1021/acs.jnatprod.9b00140 (University of Illinois At Chicago, 2019).

Structures are written as SMILES.

For this assay, the target named is Transcription factor p65 (Human, UniProt Q04206). As to the kind of experiment: Inhibition of TNF alpha stimulated NF-KappaB p65 in human HeLa nuclear extract assessed as decrease in NF-KappaB translocation to nucleus measured after 5 hrs by ELISA. In general terms: An ELISA detects its analyte on a solid surface through an enzyme-linked reagent.
Transcription factor p65, sequence (Q04206 whole entry): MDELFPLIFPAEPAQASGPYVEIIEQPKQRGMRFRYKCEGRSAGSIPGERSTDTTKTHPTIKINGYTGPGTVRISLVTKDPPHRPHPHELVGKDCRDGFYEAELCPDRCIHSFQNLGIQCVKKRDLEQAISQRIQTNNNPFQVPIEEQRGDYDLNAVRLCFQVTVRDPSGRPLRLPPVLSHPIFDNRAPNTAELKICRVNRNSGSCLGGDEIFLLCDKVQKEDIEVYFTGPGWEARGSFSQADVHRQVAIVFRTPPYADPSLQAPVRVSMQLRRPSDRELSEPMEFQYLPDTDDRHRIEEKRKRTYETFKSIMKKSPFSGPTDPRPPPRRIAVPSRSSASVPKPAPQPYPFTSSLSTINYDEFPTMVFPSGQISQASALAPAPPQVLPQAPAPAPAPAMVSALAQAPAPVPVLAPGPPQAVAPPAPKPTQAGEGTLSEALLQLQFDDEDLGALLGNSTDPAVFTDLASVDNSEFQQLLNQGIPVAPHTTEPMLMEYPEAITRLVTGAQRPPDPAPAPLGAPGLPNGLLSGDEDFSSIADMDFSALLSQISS

Broadly, the IC50 is the midpoint of a concentration-inhibition curve. In the case of `C[C@H]1O[C@@H](O[C@H]2CC[C@]3(C)[C@H]4CC[C@]5(C)[C@@H](C6=CC(=O)OC6)CC[C@]5(O)[C@@H]4CC[C@]3(O)C2)C[C@H](O)[C@@H]1O[C@@H]1O[C@H](CO)[C@@H](O)[C@H](O)[C@H]1O`, the IC50 came to 4.3 µM.
